Measured values as given in US20260265279A1, “RHO-ASSOCIATED PROTEIN KINASE INHIBITOR AND PREPARATION AND USE THEREOF” (Shanghai Zhimeng Biopharma, Inc, priority 2022, published 2026).

How the values were obtained:
[1] = biological target: T1, ROCK2 (Homo sapiens, UniProt O75116); test: Kinase IC50 assay, HTRF kinEASE STK S2 kit, ROCK2; type: biochemical; settings: ATP 1 μM, 2.5 ng/well enzyme, 120 min
T1 construct: purchased Invitrogen PV3759
Protocol: (§1) Kinase IC50 assay was performed using the kinase assay kit HTRF kinEASE STK S2 kit (Cat #62ST2PEC, Cisbio). Kinases ROCK1 (Cat #PV3691) and ROCK2 (Cat #PV3759) were purchased from Invitrogen.
(§2) The working solution required for the assay was prepared with the appropriate reagents as described in the kinase assay kit instructions:
(§3) 1 mL of 1× Kinase Buffer contains 200 μL 5× Enzyme buffer, 5 μL 1M MgCl2 (Cat.M8266, Sigma), 1 μL 1M DTT (Cat.D5545, Sigma), 794 μL ddH2O.
(§4) The specific concentrations of STK-biotin substrate and ATP are shown in Table A. STK-biotin substrate and ATP were diluted with 1× kinase buffer to 2.5 times of the reaction concentration.
(§5) Concentrations of ROCK1/ROCK2 are shown in Table A. 5×ROCK1/ROCK2 Kinase working solution was prepared with 1× Kinase Buffer.
(§6) See Table A for the concentrations of Streptavidin-XL665 and STK Antibody-Cryptate in the reaction. 2× Streptavidin-XL665 and STK Antibody-Cryptate Working Solutions were prepared 5 minutes prior to the end of the kinase reaction using Detection Buffer from the kit.
(§7) A 100 μM compound mother solution was prepared using 1× kinase buffer containing 2.5% DMSO, and the mother solution was diluted 4-fold stepwise with the above DMSO-containing kinase buffer to obtain nine different concentrations of the compound solutions to be tested. In addition to the test compound wells, positive control wells (containing all reagents except the compounds) and negative control wells (containing all reagents except the compounds and kinase) were set up. 4 μL of the test compound solution was added to all reaction wells except the control wells and 4 μL of 2.5% DMSO solution was added to the control wells. Then 4 μL of previously prepared substrate and ATP working solution were added to all wells and mix well. Then, 2 μL/well of 5×ROCK1/ROCK2 kinase working solution (containing 2.5 ng ROCK1/ROCK2 kinase) was added to all reaction wells except negative control wells, and the negative control wells were made up to volume with 2 μL of 1× kinase buffer. Mix well, seal with plastic film and incubate at room temperature for 2 hours. Start preparing the assay solution 5 minutes before the end of the kinase reaction. After the end of the kinase reaction, 10 μL of prepared Streptavidin-XL665 and STK Antibody-Cryptate working solution were added to all reaction wells, the plates were sealed and mixed well, and then incubated at room temperature for 1 hour. Finally, the fluorescence signal was detected by SpectraMax i3x Multi-Mode Reader (Molecular Devices) (excitation wavelength is 320 nm, emission wavelength is 665 nm and 615 nm).
(§8) The inhibition rate in each well was calculated from the fluorescence intensity values of each well:
(§9) ER Emission Ratio, Emission light ratio=fluorescence intensity at 665 nm/fluorescence intensity at 615 nm;
(§10) ERcompound, ER of test compound wells; ERvehicle, ER of solvent (positive) control wells, ERblank, ER of blank (negative) control wells.
(§11) The graphs were plotted using the software GraphPad Prism 6.0, while the half inhibitory concentration (IC50) of each compound to be tested was obtained by fitting with Prism 6.0.

[2] = biological target: T2, ROCK1 (Homo sapiens, UniProt Q13464); test: Kinase IC50 assay, HTRF kinEASE STK S2 kit, ROCK1; type: biochemical; settings: ATP 1.5 μM, 2.5 ng/well enzyme, 120 min
T2 construct: purchased Invitrogen PV3691
T2 sequence (Q13464 1-535 limits assumed): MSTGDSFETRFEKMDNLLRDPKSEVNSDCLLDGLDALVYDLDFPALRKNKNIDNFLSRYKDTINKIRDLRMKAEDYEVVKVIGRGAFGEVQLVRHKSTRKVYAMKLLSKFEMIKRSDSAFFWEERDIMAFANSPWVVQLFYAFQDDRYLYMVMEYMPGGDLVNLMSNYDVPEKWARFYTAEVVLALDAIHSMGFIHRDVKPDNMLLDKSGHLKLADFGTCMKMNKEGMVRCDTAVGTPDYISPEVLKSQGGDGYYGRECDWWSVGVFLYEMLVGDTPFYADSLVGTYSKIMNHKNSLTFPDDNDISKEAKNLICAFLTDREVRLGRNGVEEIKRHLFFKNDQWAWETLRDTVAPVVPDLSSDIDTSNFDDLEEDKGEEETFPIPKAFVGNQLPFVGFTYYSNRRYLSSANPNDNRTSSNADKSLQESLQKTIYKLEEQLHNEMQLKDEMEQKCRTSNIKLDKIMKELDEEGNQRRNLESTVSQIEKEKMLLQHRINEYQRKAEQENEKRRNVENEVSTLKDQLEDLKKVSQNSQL
Protocol: as §1, §2, §3, §4, §5, §6, §7, §8, §9, §10, §11

[3] = Pharmacokinetic study in male SD rats; type: in vivo; settings: rat, plasma
Protocol: 1) Purpose of the Study: Obtain the Pharmacokinetic Characterization of the Compounds of the Present Invention in Male SD Rats
For each compound, 6 healthy male SD rats (weight range 200-250 g) was taken and divided into 2 groups of 3 each; Group 1 was administered intravenously in a single dose (see Table 2 for dosage) and Group 2 was administered orally in a single gavage (see Table 2 for dosage, fasted overnight before administration). Blood was collected by jugular vein or cardiac puncture at 0.083 (group 1 only), 0.25, 0.5, 1, 2, 4, 6 (group 2 only), 8 and 24 h after drug administration, respectively, and at least 0.2 mL of whole blood was collected from each sample into EDTA-K2 anticoagulant tubes, and the samples were mixed and placed on wet ice after sample collection, and then centrifuged to separate plasma (6,800 g, 6 min, 2-8° C.) at 1 h. The plasma samples were stored in ultra-low temperature refrigerators before analysis.
Experimental results: The pharmacokinetic parameters after administration were calculated from the blood concentration data obtained by LC-MS/MS assay using the non-compartmental model of WinNonlin® 7.0 software (Pharsight, Inc., USA) and are shown in the table below: […]

[4] = po, gavage 10 mg/kg, fasted overnight

T1 sequence (O75116 5-554 limits assumed): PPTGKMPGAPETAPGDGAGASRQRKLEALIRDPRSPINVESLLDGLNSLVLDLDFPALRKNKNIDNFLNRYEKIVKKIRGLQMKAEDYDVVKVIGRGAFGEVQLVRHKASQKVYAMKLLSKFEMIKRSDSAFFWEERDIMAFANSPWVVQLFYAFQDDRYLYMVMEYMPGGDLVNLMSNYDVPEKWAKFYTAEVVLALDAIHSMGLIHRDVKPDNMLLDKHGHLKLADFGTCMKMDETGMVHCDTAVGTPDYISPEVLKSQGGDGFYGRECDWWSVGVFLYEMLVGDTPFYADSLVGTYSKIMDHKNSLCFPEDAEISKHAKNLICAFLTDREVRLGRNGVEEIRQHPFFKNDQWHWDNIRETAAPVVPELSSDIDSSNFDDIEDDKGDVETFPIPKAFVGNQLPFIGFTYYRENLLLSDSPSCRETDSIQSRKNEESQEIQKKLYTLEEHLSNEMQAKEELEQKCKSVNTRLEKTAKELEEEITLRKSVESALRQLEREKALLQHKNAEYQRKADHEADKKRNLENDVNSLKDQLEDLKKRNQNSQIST

Cn1c(C#Cc2nccc(Nc3ccc(-c4cn[nH]c4)cc3)n2)ccc1C(=O)N1CC(F)(F)C1 [Compound A1]
IC50 [1]: 0.104 µM
IC50 [2]: > 100 µM
AUC(0-t) ([3]; intravenous injection 1 mg/kg): 1210 ng·h/mL
Cmax ([3]; intravenous injection 1 mg/kg): 765 ng/mL
Tmax ([3]; intravenous injection 1 mg/kg): 0.08 h
half-life ([3]; intravenous injection 1 mg/kg): 2.05 h
bioavailability ([3]; oral, gavage 10 mg/kg vs intravenous 1 mg/kg): 11.5%
AUC(0-t) [3, 4]: 1400 ng·h/mL
Cmax [3, 4]: 251 ng/mL
Tmax [3, 4]: 1.33 h
half-life [3, 4]: 3.47 h
